The source of these data is ChEMBL document CHEMBL1212733, “Chemical genomics in Escherichia coli identifies an inhibitor of bacterial lipoprotein targeting” (Nat Chem Biol, 2009).

Active and inactive are the calls of the source. No cut-off for these calls is given here.

In experiment [1] the target is tRNA threonylcarbamoyladenosine biosynthesis protein TsaE (Escherichia coli (strain K12)) (UniProt P0AF67). The experiment in a line: Inhibition of IPTG-stimulated Escherichia coli K-12 yjeE at 4 fold MIC by microarray analysis.
For experiment [2], the target named is Small ribosomal subunit protein bS18 (Escherichia coli (strain K12)) (UniProt P0A7T7). The experiment in a line: Inhibition of IPTG-stimulated Escherichia coli K-12 rpSR at 4 fold MIC by microarray analysis.
The target in experiment [3] is D-alanine--D-alanine ligase B (Escherichia coli K-12) (UniProt P07862). Description: Inhibition of IPTG-stimulated Escherichia coli K-12 ddlB at 4 fold MIC by microarray analysis.
Experiment [4] deals with T1, Iron-sulfur cluster insertion protein ErpA (Escherichia coli (strain K12)) (UniProt P0ACC3).
T1 sequence (whole entry): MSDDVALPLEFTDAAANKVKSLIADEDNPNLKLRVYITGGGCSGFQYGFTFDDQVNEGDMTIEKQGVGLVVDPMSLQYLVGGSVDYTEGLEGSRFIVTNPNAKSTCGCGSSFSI
Description: Inhibition of IPTG-stimulated Escherichia coli K-12 yadR at 4 fold MIC by microarray analysis.

For experiment [5], the target named is T2, Cell division protein FtsA (Escherichia coli (strain K12)) (UniProt P0ABH0).
T2 sequence (whole entry): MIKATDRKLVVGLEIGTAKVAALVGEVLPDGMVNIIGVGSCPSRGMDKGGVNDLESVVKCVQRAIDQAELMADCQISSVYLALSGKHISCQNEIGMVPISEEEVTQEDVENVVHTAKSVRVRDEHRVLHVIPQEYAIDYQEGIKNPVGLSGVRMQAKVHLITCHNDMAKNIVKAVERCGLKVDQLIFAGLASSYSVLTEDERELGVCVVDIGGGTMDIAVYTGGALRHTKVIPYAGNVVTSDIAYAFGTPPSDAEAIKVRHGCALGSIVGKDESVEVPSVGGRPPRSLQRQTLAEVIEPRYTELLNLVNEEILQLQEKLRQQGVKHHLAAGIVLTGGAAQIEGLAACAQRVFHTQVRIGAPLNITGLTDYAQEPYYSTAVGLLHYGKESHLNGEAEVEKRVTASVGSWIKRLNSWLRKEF
Description: Inhibition of IPTG-stimulated Escherichia coli K-12 ftsA at 4 fold MIC by microarray analysis.

Experiment [6] deals with UDP-3-O-acyl-N-acetylglucosamine deacetylase (Escherichia coli K-12) (UniProt P0A725). The experiment in a line: Inhibition of IPTG-stimulated Escherichia coli K-12 envA at 4 fold MIC by microarray analysis.
Experiment [7] deals with T2, Cell division protein FtsA (Escherichia coli (strain K12)). Description: Inhibition of IPTG-stimulated Escherichia coli K-12 ftsA at 16 fold MIC by microarray analysis.
In experiment [8] the target is T1, Iron-sulfur cluster insertion protein ErpA (Escherichia coli (strain K12)). The experiment in a line: Inhibition of IPTG-stimulated Escherichia coli K-12 yadR at 16 fold MIC by microarray analysis.
For experiment [9], the target named is D-alanine--D-alanine ligase B (Escherichia coli K-12) (UniProt P07862). Description: Inhibition of IPTG-stimulated Escherichia coli K-12 ddlB at 16 fold MIC by microarray analysis.
Experiment [10] concerns the target T2, Cell division protein FtsA (Escherichia coli (strain K12)). The experiment in a line: Inhibition of IPTG-stimulated Escherichia coli K-12 ftsA at 8 fold MIC by microarray analysis.
For experiment [11], the target named is T1, Iron-sulfur cluster insertion protein ErpA (Escherichia coli (strain K12)). The experiment in a line: Inhibition of IPTG-stimulated Escherichia coli K-12 yadR at 8 fold MIC by microarray analysis.
In experiment [12] the target is D-alanine--D-alanine ligase B (Escherichia coli K-12) (UniProt P07862). The experiment in a line: Inhibition of IPTG-stimulated Escherichia coli K-12 ddlB at 8 fold MIC by microarray analysis.
Experiment [13] concerns the target T3, Outer membrane protein TolC (Escherichia coli (strain K12)) (UniProt P02930).
T3 sequence (whole entry): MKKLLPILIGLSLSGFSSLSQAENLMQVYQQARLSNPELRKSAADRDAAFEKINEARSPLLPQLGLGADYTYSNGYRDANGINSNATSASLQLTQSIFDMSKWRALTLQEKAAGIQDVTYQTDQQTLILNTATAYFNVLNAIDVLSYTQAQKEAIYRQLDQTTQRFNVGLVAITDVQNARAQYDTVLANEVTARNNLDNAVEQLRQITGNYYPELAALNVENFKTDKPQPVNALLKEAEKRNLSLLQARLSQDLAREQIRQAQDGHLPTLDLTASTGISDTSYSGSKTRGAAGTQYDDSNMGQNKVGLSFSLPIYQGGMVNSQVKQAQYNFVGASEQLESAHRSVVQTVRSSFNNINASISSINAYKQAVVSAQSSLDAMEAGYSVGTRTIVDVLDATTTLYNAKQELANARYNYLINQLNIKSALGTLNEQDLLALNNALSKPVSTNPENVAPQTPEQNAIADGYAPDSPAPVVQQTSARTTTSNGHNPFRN
The experiment in a line: Inhibition of IPTG-stimulated Escherichia coli K-12 tolC at 4 fold MIC by microarray analysis.

Experiment [14] addresses Multidrug efflux pump subunit AcrB (Escherichia coli (strain K12)) (UniProt P31224). The experiment in a line: Binding affinity to Escherichia coli K-12 MC1061 acrB assessed as susceptibility to compound efflux at 0.01 to 1 ug/ml after 16 hrs by plate reader assay.
For experiment [15], the target named is UDP-N-acetylglucosamine 1-carboxyvinyltransferase (Escherichia coli K-12) (UniProt P0A749). The experiment in a line: Inhibition of IPTG-stimulated Escherichia coli K-12 murA at 4 fold MIC by microarray analysis.
Experiment [16] deals with Multifunctional CCA protein (Escherichia coli (strain K12)) (UniProt P06961). Description: Inhibition of IPTG-stimulated Escherichia coli K-12 cca at 4 fold MIC by microarray analysis.
Experiment [17] addresses T4, Uncharacterized protein YdiL (Escherichia coli (strain K12)) (UniProt P76196).
T4 sequence (whole entry): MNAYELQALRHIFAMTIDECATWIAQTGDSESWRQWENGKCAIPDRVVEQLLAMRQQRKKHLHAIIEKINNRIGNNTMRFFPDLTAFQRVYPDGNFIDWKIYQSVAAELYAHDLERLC
The experiment in a line: Inhibition of IPTG-stimulated Escherichia coli K-12 ydiL at 4 fold MIC by microarray analysis.

Experiment [18] addresses Uncharacterized protein YdfB (Escherichia coli (strain K12)) (UniProt P29009). The experiment in a line: Inhibition of IPTG-stimulated Escherichia coli K-12 ydfB at 4 fold MIC by microarray analysis.
Experiment [19] has as its target Putative reactive intermediate deaminase TdcF (Escherichia coli (strain K12)) (UniProt P0AGL2). The experiment in a line: Inhibition of IPTG-stimulated Escherichia coli K-12 yhaR at 4 fold MIC by microarray analysis.
The target in experiment [20] is Fructose-bisphosphate aldolase class 2 (Escherichia coli K-12) (UniProt P0AB71). Description: Inhibition of IPTG-stimulated Escherichia coli K-12 fbaA at 4 fold MIC by microarray analysis.
For experiment [21], the target named is Acyl carrier protein (Escherichia coli (strain K12)) (UniProt P0A6A8). Description: Inhibition of IPTG-stimulated Escherichia coli K-12 acpP at 4 fold MIC by microarray analysis.
In experiment [22] the target is 3-oxoacyl-[acyl-carrier-protein] synthase 1 (Escherichia coli K-12) (UniProt P0A953). Description: Inhibition of IPTG-stimulated Escherichia coli K-12 fabB at 4 fold MIC by microarray analysis.
The target of experiment [23] is Guanylate kinase (Escherichia coli (strain K12)) (UniProt P60546). The experiment in a line: Inhibition of IPTG-stimulated Escherichia coli K-12 gmk at 4 fold MIC by microarray analysis.
For experiment [24], the target named is Octaprenyl diphosphate synthase (Escherichia coli (strain K12)) (UniProt P0AD57). Description: Inhibition of IPTG-stimulated Escherichia coli K-12 ispB at 4 fold MIC by microarray analysis.
The target in experiment [25] is Farnesyl diphosphate synthase (Escherichia coli K-12) (UniProt P22939). The experiment in a line: Inhibition of IPTG-stimulated Escherichia coli K-12 ispA at 4 fold MIC by microarray analysis.
Experiment [26] has as its target 1-acyl-sn-glycerol-3-phosphate acyltransferase (Escherichia coli (strain K12)) (UniProt P26647). Description: Inhibition of IPTG-stimulated Escherichia coli K-12 plsC at 4 fold MIC by microarray analysis.
Experiment [27] concerns the target UDP-N-acetylmuramoyl-L-alanyl-D-glutamate--2,6-diaminopimelate ligase (Escherichia coli (strain K12)) (UniProt P22188). The experiment in a line: Inhibition of IPTG-stimulated Escherichia coli K-12 murE at 4 fold MIC by microarray analysis.
Experiment [28] has as its target CDP-diacylglycerol--glycerol-3-phosphate 3-phosphatidyltransferase (Escherichia coli (strain K12)) (UniProt P0ABF8). The experiment in a line: Inhibition of IPTG-stimulated Escherichia coli K-12 pgsA at 4 fold MIC by microarray analysis.
In experiment [29] the target is T5, Dihydrofolate synthase/folylpolyglutamate synthase (Escherichia coli (strain K12)) (UniProt P08192).
T5 sequence (whole entry): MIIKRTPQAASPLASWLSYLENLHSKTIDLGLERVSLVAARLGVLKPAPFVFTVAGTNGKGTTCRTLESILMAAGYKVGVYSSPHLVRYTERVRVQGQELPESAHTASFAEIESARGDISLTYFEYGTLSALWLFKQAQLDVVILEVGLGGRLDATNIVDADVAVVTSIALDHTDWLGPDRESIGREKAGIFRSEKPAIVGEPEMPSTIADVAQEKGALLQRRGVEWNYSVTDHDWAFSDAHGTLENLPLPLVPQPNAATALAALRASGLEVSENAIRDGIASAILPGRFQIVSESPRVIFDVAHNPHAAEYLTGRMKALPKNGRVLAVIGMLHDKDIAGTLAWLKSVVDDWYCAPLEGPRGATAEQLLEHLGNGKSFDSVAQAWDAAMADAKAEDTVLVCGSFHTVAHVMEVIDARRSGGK
Description: Inhibition of IPTG-stimulated Escherichia coli K-12 folC at 4 fold MIC by microarray analysis.

For experiment [30], the target named is T3, Outer membrane protein TolC (Escherichia coli (strain K12)). The experiment in a line: Inhibition of IPTG-stimulated Escherichia coli K-12 tolC at 16 fold MIC by microarray analysis.
Experiment [31] deals with T5, Dihydrofolate synthase/folylpolyglutamate synthase (Escherichia coli (strain K12)). Description: Inhibition of IPTG-stimulated Escherichia coli K-12 folC at 16 fold MIC by microarray analysis.
Experiment [32] has as its target Acyl carrier protein (Escherichia coli (strain K12)) (UniProt P0A6A8). Description: Inhibition of IPTG-stimulated Escherichia coli K-12 acpP at 8 fold MIC by microarray analysis.
In experiment [33] the target is 3-oxoacyl-[acyl-carrier-protein] synthase 1 (Escherichia coli K-12) (UniProt P0A953). Description: Inhibition of IPTG-stimulated Escherichia coli K-12 fabB at 8 fold MIC by microarray analysis.
In experiment [34] the target is Octaprenyl diphosphate synthase (Escherichia coli (strain K12)) (UniProt P0AD57). The experiment in a line: Inhibition of IPTG-stimulated Escherichia coli K-12 ispB at 8 fold MIC by microarray analysis.
In experiment [35] the target is Large ribosomal subunit protein bL28 (Escherichia coli (strain K12)) (UniProt P0A7M2). Description: Inhibition of IPTG-stimulated Escherichia coli K-12 rpmB at 4 fold MIC by microarray analysis.

Sequence of Acyl carrier protein (Escherichia coli (strain K12)) (P0A6A8 whole entry): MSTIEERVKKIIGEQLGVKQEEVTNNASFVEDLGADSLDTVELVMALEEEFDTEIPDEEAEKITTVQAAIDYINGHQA
Sequence of 3-oxoacyl-[acyl-carrier-protein] synthase 1 (Escherichia coli K-12) (P0A953 whole entry): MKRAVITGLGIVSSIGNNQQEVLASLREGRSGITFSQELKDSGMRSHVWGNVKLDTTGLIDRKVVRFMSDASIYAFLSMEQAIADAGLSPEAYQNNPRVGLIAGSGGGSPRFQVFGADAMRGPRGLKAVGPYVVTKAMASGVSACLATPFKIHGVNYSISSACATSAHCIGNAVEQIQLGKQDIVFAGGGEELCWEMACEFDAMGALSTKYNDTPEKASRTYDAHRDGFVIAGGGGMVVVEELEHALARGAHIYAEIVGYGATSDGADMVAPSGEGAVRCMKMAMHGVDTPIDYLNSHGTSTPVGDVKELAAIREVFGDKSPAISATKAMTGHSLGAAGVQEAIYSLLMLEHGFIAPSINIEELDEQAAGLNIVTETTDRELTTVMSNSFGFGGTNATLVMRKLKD
Sequence of Octaprenyl diphosphate synthase (Escherichia coli (strain K12)) (P0AD57 whole entry): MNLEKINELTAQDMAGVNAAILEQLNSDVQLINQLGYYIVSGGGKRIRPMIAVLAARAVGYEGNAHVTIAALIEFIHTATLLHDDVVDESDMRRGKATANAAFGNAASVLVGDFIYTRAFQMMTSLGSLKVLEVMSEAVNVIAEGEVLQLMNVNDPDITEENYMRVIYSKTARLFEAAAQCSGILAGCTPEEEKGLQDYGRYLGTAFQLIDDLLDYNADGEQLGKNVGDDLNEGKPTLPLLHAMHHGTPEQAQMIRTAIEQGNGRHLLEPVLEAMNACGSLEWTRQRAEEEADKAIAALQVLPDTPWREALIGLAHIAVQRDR
Sequence of Multifunctional CCA protein (Escherichia coli (strain K12)) (P06961 whole entry): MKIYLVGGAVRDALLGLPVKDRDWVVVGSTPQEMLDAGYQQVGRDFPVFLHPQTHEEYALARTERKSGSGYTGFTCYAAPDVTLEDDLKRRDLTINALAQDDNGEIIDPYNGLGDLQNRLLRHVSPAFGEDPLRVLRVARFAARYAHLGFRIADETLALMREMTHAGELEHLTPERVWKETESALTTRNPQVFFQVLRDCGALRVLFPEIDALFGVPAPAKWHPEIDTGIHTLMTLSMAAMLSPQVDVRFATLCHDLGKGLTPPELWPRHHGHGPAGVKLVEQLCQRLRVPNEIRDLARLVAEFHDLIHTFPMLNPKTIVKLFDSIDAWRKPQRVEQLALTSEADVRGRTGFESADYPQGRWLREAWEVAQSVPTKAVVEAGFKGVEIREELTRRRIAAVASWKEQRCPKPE
Sequence of 1-acyl-sn-glycerol-3-phosphate acyltransferase (Escherichia coli (strain K12)) (P26647 whole entry): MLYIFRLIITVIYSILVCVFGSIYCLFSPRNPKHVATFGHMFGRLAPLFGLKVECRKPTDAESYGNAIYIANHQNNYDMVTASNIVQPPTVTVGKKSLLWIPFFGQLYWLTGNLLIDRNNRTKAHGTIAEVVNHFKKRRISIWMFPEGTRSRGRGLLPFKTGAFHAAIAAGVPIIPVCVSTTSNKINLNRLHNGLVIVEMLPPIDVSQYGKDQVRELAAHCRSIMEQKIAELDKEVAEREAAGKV
Sequence of Fructose-bisphosphate aldolase class 2 (Escherichia coli K-12) (P0AB71 whole entry): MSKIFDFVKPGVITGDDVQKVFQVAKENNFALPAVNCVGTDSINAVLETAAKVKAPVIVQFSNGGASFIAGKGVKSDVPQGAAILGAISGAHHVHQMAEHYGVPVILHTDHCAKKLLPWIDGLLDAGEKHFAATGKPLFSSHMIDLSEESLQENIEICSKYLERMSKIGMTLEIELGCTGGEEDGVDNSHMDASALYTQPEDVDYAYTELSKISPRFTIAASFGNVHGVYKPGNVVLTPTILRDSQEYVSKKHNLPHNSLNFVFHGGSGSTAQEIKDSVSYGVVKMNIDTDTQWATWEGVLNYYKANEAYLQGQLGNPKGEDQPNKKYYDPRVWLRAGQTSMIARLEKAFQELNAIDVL
Sequence of UDP-3-O-acyl-N-acetylglucosamine deacetylase (Escherichia coli K-12) (P0A725 whole entry): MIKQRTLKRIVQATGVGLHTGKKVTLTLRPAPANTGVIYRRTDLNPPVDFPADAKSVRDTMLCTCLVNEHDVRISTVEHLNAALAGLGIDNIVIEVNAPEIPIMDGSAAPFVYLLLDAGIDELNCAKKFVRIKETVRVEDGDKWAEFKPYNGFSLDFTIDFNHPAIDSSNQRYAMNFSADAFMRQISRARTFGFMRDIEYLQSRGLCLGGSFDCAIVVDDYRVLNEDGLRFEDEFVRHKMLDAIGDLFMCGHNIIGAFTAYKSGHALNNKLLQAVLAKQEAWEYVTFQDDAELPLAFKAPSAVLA
Sequence of Guanylate kinase (Escherichia coli (strain K12)) (P60546 whole entry): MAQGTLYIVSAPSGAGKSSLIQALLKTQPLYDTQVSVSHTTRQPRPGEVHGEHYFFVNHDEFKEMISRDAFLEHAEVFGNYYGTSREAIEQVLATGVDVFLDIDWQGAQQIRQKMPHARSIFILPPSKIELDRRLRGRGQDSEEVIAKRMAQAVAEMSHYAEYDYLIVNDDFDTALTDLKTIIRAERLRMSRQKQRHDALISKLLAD
Sequence of CDP-diacylglycerol--glycerol-3-phosphate 3-phosphatidyltransferase (Escherichia coli (strain K12)) (P0ABF8 whole entry): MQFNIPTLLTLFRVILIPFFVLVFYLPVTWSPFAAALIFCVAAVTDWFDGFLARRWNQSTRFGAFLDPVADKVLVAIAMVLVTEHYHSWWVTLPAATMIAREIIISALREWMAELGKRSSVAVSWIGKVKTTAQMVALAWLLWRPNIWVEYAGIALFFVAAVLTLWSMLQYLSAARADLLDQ
Sequence of Uncharacterized protein YdfB (Escherichia coli (strain K12)) (P29009 whole entry): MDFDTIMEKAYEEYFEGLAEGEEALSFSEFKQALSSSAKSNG
Sequence of Multidrug efflux pump subunit AcrB (Escherichia coli (strain K12)) (P31224 whole entry): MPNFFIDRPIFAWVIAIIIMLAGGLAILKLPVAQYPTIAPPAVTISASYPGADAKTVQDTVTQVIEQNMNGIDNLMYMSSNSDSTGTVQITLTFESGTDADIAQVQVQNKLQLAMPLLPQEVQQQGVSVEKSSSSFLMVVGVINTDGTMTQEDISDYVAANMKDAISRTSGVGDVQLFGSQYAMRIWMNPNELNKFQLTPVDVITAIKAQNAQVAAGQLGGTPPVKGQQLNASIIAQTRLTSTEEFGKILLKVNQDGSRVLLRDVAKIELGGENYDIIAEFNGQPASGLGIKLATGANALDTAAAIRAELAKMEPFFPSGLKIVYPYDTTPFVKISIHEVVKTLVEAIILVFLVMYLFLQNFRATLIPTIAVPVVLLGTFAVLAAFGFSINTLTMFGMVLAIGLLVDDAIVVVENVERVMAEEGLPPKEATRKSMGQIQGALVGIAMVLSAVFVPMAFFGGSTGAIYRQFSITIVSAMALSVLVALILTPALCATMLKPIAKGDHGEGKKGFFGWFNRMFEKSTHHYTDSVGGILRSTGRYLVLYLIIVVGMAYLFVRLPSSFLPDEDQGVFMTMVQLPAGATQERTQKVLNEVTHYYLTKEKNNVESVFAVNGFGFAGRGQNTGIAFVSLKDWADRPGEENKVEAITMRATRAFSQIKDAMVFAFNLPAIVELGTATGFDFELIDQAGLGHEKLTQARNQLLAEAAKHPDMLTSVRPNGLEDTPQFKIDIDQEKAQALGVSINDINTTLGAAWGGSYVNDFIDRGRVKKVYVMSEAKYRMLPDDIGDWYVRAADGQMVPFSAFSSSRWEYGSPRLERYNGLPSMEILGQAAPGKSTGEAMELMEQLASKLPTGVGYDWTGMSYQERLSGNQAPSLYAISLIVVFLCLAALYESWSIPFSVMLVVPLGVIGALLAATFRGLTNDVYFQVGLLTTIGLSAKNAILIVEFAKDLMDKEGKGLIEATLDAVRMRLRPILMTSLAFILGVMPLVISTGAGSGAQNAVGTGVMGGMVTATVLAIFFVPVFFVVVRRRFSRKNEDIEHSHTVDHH
Sequence of Farnesyl diphosphate synthase (Escherichia coli K-12) (P22939 whole entry): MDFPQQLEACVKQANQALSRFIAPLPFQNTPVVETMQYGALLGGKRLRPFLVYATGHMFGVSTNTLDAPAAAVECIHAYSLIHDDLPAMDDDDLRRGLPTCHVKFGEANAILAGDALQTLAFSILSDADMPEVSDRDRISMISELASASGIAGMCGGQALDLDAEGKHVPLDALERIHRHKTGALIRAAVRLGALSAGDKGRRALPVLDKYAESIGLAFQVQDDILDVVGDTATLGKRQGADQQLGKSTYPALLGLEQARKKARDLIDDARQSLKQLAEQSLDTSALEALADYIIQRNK
Sequence of Putative reactive intermediate deaminase TdcF (Escherichia coli (strain K12)) (P0AGL2 whole entry): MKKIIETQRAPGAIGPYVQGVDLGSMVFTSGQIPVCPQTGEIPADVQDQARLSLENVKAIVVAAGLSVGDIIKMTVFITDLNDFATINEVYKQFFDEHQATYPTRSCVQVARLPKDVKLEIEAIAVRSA
Sequence of UDP-N-acetylglucosamine 1-carboxyvinyltransferase (Escherichia coli K-12) (P0A749 whole entry): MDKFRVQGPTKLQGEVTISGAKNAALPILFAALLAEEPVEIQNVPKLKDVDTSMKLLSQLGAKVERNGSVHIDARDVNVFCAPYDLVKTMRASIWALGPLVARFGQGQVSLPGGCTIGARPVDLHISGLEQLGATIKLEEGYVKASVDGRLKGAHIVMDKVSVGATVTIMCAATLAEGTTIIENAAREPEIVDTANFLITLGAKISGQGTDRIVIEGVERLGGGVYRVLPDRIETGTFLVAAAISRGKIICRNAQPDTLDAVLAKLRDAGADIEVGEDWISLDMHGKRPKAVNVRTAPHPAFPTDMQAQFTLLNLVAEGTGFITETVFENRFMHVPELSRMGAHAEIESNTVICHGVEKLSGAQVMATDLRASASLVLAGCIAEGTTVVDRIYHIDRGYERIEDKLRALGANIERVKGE

For the molecule `N[C@@H]1CONC1=O`, the inhibition entry in experiment [1], in experiment [2], in experiment [3], in [4], in experiment [5] and in experiment [6] was “Active” throughout. Besides, the inhibition entry in [7], in experiment [8], in experiment [9], in [10], in [11] and in experiment [12] was “Active” in each case. In [13], the inhibition result was “Active”.

On to `CCn1cc(C(=O)O)c(=O)c2cc(F)c(N3CCNCC3)cc21`, for which, in experiment [14], the result was inactive.

`C[C@@H]1O[C@@H]1P(=O)(O)O`: the inhibition entry in experiment [15], in experiment [16], in [17], in [18], in [19] and in experiment [20] was “Active” throughout. Moreover, the inhibition result in [21], in experiment [22], in [23], in experiment [24], in [25] and in [26] was “Active” each time. In addition, the inhibition result in experiment [27], in [28], in experiment [29], in experiment [30], in [31] and in experiment [32] was “Active” each time. The inhibition entry in experiment [33], in experiment [34] and in experiment [35] was “Active” throughout.
